Literature values in US20250275917A1, “TOPICAL FOAMABLE PHARMACEUTICAL COMPOSITION” (EUROFARMA LABORATORIOS S.A., priority 2021, published 2025).

Settings: systemic absorption

In the case of Nc1cc(N2CCCCC2)nc(N)[n+]1[O-] [Minoxidil], the “concentration associated with adverse effects” value is listed as 20 ng/mL.
